# Assay results from PubChem BioAssay AID1259407 (Chemical Carcinogenesis Research Information System (CCRIS), 2018).
# Activity calls are given as the source filed them. The rule behind the calls is not given here.
# System: CCRIS mutagenicity, Ames/micronucleus/aberration tests
# Assay: CCRIS mutagenicity studies
# [1] = Test System: AMES SALMONELLA TYPHIMURIUM, Strain/Indicator: TA98, Metabolic Activation: NONE, Method: STANDARD PLATE
# [2] = Test System: AMES SALMONELLA TYPHIMURIUM, Strain/Indicator: TA100, Metabolic Activation: NONE, Method: STANDARD PLATE
# [3] = Test System: AMES SALMONELLA TYPHIMURIUM, Strain/Indicator: TA100, Metabolic Activation: RAT, LIVER, S-9, AROCLOR 1254, Method: STANDARD PLATE
# [4] = Test System: AMES SALMONELLA TYPHIMURIUM, Strain/Indicator: TA1535, Metabolic Activation: NONE, Method: STANDARD PLATE
smiles,measurement,setting,value
c1ccc2cc3c(ccc4ccccc43)cc2c1,mutagenic call,[1],inactive; negative
same,mutagenic call,"Test System: AMES SALMONELLA TYPHIMURIUM, Strain/Indicator: TA98, Method: STANDARD PLATE",active; positive
same,mutagenic call,[2],inactive; negative
same,mutagenic call,"Test System: AMES SALMONELLA TYPHIMURIUM, Strain/Indicator: TA100, Metabolic Activation: RAT, INTACT HEPATOCYTES, AROCLOR 1254, Method: PREINCUBATION",active; positive
same,mutagenic call,"Test System: AMES SALMONELLA TYPHIMURIUM, Strain/Indicator: TA100, Metabolic Activation: RAT, LIVER, S-9, 3-METHYLCHOLANTHRENE, Method: STANDARD PLATE",active; positive
same,mutagenic call,[3],active; positive
same,mutagenic call,"Test System: AMES SALMONELLA TYPHIMURIUM, Strain/Indicator: TA100, Metabolic Activation: RAT, LIVER, S-9, PHENOBARBITAL, Method: STANDARD PLATE",inactive; negative
same,mutagenic call,"Test System: AMES SALMONELLA TYPHIMURIUM, Strain/Indicator: TA100, Metabolic Activation: RAT, NADPH-FORTIFIED HOMOGENIZED HEPATOCYTES, AROCLOR 1254, Method: PREINCUBATION",active; positive
same,mutagenic call,"Test System: AMES SALMONELLA TYPHIMURIUM, Strain/Indicator: TA100, Metabolic Activation: RAT, SONICATED HEPATOCYTES, AROCLOR 1254, Method: PREINCUBATION",active; positive
same,mutagenic call,"Test System: AMES SALMONELLA TYPHIMURIUM, Strain/Indicator: TA100, Method: STANDARD PLATE",active; positive
same,mutagenic call,"Test System: AMES SALMONELLA TYPHIMURIUM, Strain/Indicator: TA1537, Metabolic Activation: MOUSE, LIVER, S-9, Method: STANDARD PLATE",active; positive
same,mutagenic call,"Test System: AMES SALMONELLA TYPHIMURIUM, Strain/Indicator: TA1538, Metabolic Activation: NONE, Method: STANDARD PLATE",inactive; negative
same,mutagenic call,"Test System: AMES SALMONELLA TYPHIMURIUM, Strain/Indicator: TA1538, Metabolic Activation: RAT, LIVER, S-9, AROCLOR 1254, Method: STANDARD PLATE",inactive; negative
same,mutagenic call,"Test System: AMES SALMONELLA TYPHIMURIUM, Strain/Indicator: TA1538, Metabolic Activation: RAT, LIVER, S-9, PHENOBARBITAL, Method: STANDARD PLATE",active; positive
same,mutagenic call,"Test System: CHINESE HAMSTER V-79, Strain/Indicator: V-79/6-THIOGUANINE, Metabolic Activation: RAT, LIVER, S-9, PHENOBARBITAL, Method: STANDARD PLATE",active; positive
same,mutagenic call,"Test System: CHINESE HAMSTER V-79, Strain/Indicator: V-79/OUABAIN, Metabolic Activation: CELL-MEDIATED, Method: STANDARD PLATE",active; positive
same,mutagenic call,"Test System: E. COLI, Strain/Indicator: WP2 UVRA, Metabolic Activation: HAMSTER, LIVER, S-9, AROCLOR 1254, Method: STANDARD PLATE",inactive; negative
same,mutagenic call,"Test System: E. COLI, Strain/Indicator: WP2 UVRA, Metabolic Activation: HAMSTER, LIVER, S-9, Method: STANDARD PLATE",inactive; negative
same,mutagenic call,"Test System: E. COLI, Strain/Indicator: WP2 UVRA, Metabolic Activation: MOUSE, LIVER, S-9, AROCLOR 1254, Method: STANDARD PLATE",inactive; negative
same,mutagenic call,"Test System: E. COLI, Strain/Indicator: WP2 UVRA, Metabolic Activation: MOUSE, LIVER, S-9, Method: STANDARD PLATE",inactive; negative
same,mutagenic call,"Test System: E. COLI, Strain/Indicator: WP2 UVRA, Metabolic Activation: NONE, Method: STANDARD PLATE",inactive; negative
same,mutagenic call,"Test System: E. COLI, Strain/Indicator: WP2 UVRA, Metabolic Activation: RAT, LIVER, S-9, AROCLOR 1254, Method: STANDARD PLATE",inactive; negative
same,mutagenic call,"Test System: E. COLI, Strain/Indicator: WP2 UVRA, Metabolic Activation: RAT, LIVER, S-9, Method: STANDARD PLATE",inactive; negative
same,mutagenic call,"Test System: MOUSE LYMPHOMA, Strain/Indicator: L5178Y (TK+/TK-), Metabolic Activation: NONE, Method: SUSPENSION/PLATE",active; positive
same,mutagenic call,"Test System: MOUSE LYMPHOMA, Strain/Indicator: L5178Y (TK+/TK-), Metabolic Activation: RAT, LIVER, S-9, AROCLOR 1254, Method: SUSPENSION/PLATE",active; positive
same,mutagenic call,"Test System: MOUSE LYMPHOMA, Strain/Indicator: L5178Y (TK+/TK-), Metabolic Activation: RAT, LIVER, S-9, Method: SUSPENSION/PLATE",active; positive
O=[N+]([O-])c1ccccc1SS/C(Cl)=C(\Cl)C(F)(F)F,mutagenic call,"Test System: AMES SALMONELLA TYPHIMURIUM, Strain/Indicator: TA100(DNP6), Metabolic Activation: NONE, Method: PREINCUBATION",active; positive
same,mutagenic call,"Test System: AMES SALMONELLA TYPHIMURIUM, Strain/Indicator: TA100(NR), Metabolic Activation: NONE, Method: PREINCUBATION",active; positive
C1OC1C1CO1 (stereo not given),mutagenic call,"End Point: IN VITRO CHROMOSOMAL ABERRATIONS, Test System: HUMAN PERIPHERAL LYMPHOCYTES, Metabolic Activation: NONE, Method: FISH (DUAL COLOR FOR CHROMOSOMES 7, 8, 12 AND X)",active; positive (hyperdiploidy of chromosomes 12 and x)
same,mutagenic call,"End Point: IN VITRO MICRONUCLEUS, Test System: HUMAN PERIPHERAL LYMPHOCYTES, Metabolic Activation: NONE",active; positive
same,mutagenic call,[1],active; positive
same,mutagenic call,[2],active; positive
same,mutagenic call,[3],active; positive
same,mutagenic call,"Test System: AMES SALMONELLA TYPHIMURIUM, Strain/Indicator: TA102, Metabolic Activation: NONE, Method: STANDARD PLATE",active; positive
same,mutagenic call,[4],active; positive
same,mutagenic call,"Test System: AMES SALMONELLA TYPHIMURIUM, Strain/Indicator: TA7004, Metabolic Activation: NONE, Method: STANDARD PLATE",inactive; negative
same,mutagenic call,"Test System: AMES SALMONELLA TYPHIMURIUM, Strain/Indicator: TA7005, Metabolic Activation: NONE, Method: STANDARD PLATE",inactive; negative
same,mutagenic call,"Test System: CHINESE HAMSTER V-79, Strain/Indicator: V-79/6-THIOGUANINE, Metabolic Activation: NONE, Method: FLASK ASSAY",active; positive
same,mutagenic call,"Test System: UDS MOUSE EPIDERMIS IN VIVO/IN VITRO, Strain/Indicator: HOS:HR-1/THYMIDINE INCORPORATION, Metabolic Activation: NONE, Method: LIQUID SCINTILLATION",active; positive
COC(=O)c1cc2c([nH]c3ccccc32)c(-c2ccc3c(n2)C(=O)C=CC3=O)n1,mutagenic call,[2],active; positive
same,mutagenic call,"Test System: AMES SALMONELLA TYPHIMURIUM, Strain/Indicator: TA100, Metabolic Activation: RAT, LIVER, S-9, PCB, Method: STANDARD PLATE",active; positive
CC(=O)OCCN(CCC#N)c1ccc(N=Nc2ccc([N+](=O)[O-])cc2)cc1,mutagenic call,"End Point: IN VITRO CHROMOSOMAL ABERRATIONS, Test System: CHL CELLS, Metabolic Activation: RAT, LIVER, S-9, SODIUM PHENOBARBITAL AND 5,6-BENZOFLAVONE",inactive; negative
Nc1ccc(N=Nc2cccc(N)c2N)cc1,mutagenic call,"Test System: AMES SALMONELLA TYPHIMURIUM, Strain/Indicator: TA98, Method: PREINCUBATION",active; positive
same,mutagenic call,"Test System: AMES SALMONELLA TYPHIMURIUM, Strain/Indicator: TA100, Method: PREINCUBATION",active; positive
S=C([S-])NCCNC(=S)[S-].[Zn+2],mutagenic call,[1],inactive; negative
same,mutagenic call,"Test System: AMES SALMONELLA TYPHIMURIUM, Strain/Indicator: TA98, Metabolic Activation: RAT, LIVER, S-9, AROCLOR 1254, Method: STANDARD PLATE",inactive; negative
same,mutagenic call,[2],inactive; negative
same,mutagenic call,[3],inactive; negative
same,mutagenic call,[4],inactive; negative
same,mutagenic call,"Test System: AMES SALMONELLA TYPHIMURIUM, Strain/Indicator: TA1535, Metabolic Activation: RAT, LIVER, S-9, AROCLOR 1254, Method: STANDARD PLATE",inactive; negative
same,mutagenic call,"Test System: AMES SALMONELLA TYPHIMURIUM, Strain/Indicator: TA1537, Metabolic Activation: NONE, Method: STANDARD PLATE",inactive; negative
same,mutagenic call,"Test System: AMES SALMONELLA TYPHIMURIUM, Strain/Indicator: TA1537, Metabolic Activation: RAT, LIVER, S-9, AROCLOR 1254, Method: STANDARD PLATE",inactive; negative
same,mutagenic call,"Test System: E. COLI, Strain/Indicator: WP2, Metabolic Activation: NONE, Method: STANDARD PLATE",inactive; negative
same,mutagenic call,"Test System: E. COLI, Strain/Indicator: WP2, Metabolic Activation: RAT, LIVER, S-9, AROCLOR 1254, Method: STANDARD PLATE",inactive; negative
NC(Cc1ccccc1)C(=O)O (stereo not given),mutagenic call,"Test System: AMES SALMONELLA TYPHIMURIUM, Strain/Indicator: TA98, Metabolic Activation: RAT LIVER S-9, CHLOROPHENE, Method: STANDARD PLATE (COMPOUND HEATED AT 250 DEGREES CELSIUS FOR 20 MIN)",inactive; negative
